Assay results from patent US4292249A, “25-Hydroxy-24-oxocholestane derivatives and preparation thereof” (priority 1979, dated 1981).

Tests used:
[1] = biological target: T1, 1α,25-dihydroxy cholecalciferol-receptor in the chick's intestinal tube (Gallus gallus, UniProt O42392); test: Combination (binding) with the 1α,25-dihydroxy cholecalciferol-receptor, competitive displacement
T1 construct: 1α,25-dihydroxy cholecalciferol-receptor in the chick's intestinal tube; from tissue; host or cells: chick intestine
T1 sequence (O42392 1-451): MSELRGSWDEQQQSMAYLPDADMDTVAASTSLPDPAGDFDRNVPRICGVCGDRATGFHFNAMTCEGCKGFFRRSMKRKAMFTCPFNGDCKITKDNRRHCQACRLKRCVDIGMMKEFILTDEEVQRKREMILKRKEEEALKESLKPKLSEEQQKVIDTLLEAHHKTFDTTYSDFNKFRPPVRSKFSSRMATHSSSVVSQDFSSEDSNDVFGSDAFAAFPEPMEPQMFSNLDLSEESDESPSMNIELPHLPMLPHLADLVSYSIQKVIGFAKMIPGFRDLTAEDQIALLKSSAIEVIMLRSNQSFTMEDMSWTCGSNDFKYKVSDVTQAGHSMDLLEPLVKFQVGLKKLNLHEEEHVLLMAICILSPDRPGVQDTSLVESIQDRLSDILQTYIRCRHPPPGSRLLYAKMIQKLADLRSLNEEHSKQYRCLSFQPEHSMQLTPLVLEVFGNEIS

[2] = system: calcium absorption at the intestinal tube; test: Effect to promote calcium absorption from the intestinal tract (everted gut sac method); type: in vivo, Wistar male rats; conditions: vitamin D-deficient rats, 250 ng/head intravenously, measured 4, 8, 24 and 48 hour later
Protocol: They were killed 4 hour, 8 hour, 24 hour and 48 hour later, and calcium absorption at the intestinal tube was measured by the everted gut sac method [see Martin, D. L. and Deluca, H. F., Amer, J. Physiol.

Row | Structure (SMILES) | 50% Displacement ([1]; chick intestinal receptor) [pg] | Molar ratio ([1]; relative to 1α,25-dihydroxy cholecalciferol = 1) | time after administration at which the effect on intestinal calcium absorption showed [2] | time for which the effect on intestinal calcium absorption continued [2] [h]
1 | C=C1/C(=C\C=C2/CCC[C@]3(C)[C@@H]([C@H](C)CCC(=O)C(C)(C)O)CC[C@@H]23)C[C@@H](O)C[C@@H]1O [1α,25-dihydroxy-24-oxo-cholecarciferol, 1α,25-dihydroxy-24-oxo cholecalciferol] | 138 | 3 | – | –
2 | C=C1CC[C@H](O)C/C1=C/C=C1\CCC[C@]2(C)[C@@H]([C@H](C)CCC(=O)C(C)(C)O)CC[C@@H]12 [25-hydroxy-24-oxo-cholecalciferol, 25-hydroxy-24-oxocholecalciferol] | – | – | about 4 hours | 44
